Laboratory results from PMC11052784 (European Journal of Drug Metabolism and Pharmacokinetics, 2024).
Like-named read-outs stand apart in the source and are kept apart here.

Key:
[1] = tested on: CYP2C19; details: cited from earlier work
[2] = tested on: CYP2B6; details: after multiple doses of abrocitinib 200 mg QD
[3] = tested on: CYP3A; assay: Oral contraceptive DDI study; format: in vivo, human
[4] = tested on: CYP3A; assay: Midazolam DDI study
[5] = Safety; format: in vivo, human; details: coadministered with midazolam, caffeine, efavirenz, omeprazole or oral contraceptives; healthy adult participants
[6] = after administration as tablet; cited from earlier work
[7] = tested on: pregnane X receptor (PXR) pathway; assay: Induction via the pregnane X receptor pathway; format: in vitro ADME; details: data on file
[8] = tested on: CYP1A2; details: with abrocitinib 200 mg QD
[9] = tested on: CYP3A4/5; assay: Time-dependent inhibition; format: in vitro ADME, human; details: HLM; for TDI of CYP3A after 30-min preincubation: incubation concentration ≥ 99.5 µM
[10] = molecular target: T1, CYP2C19 (Homo sapiens, UniProt P33261); format: in vitro ADME; details: HLM
[11] = tested on: CYP1A2/2B6/2C19/3A; assay: Reversible inhibition in human liver microsomes; format: in vitro ADME; details: HLM
[12] = molecular target: T1, CYP2C19
[13] = after multiple doses of abrocitinib 200 mg QD
[14] = with multiple doses of abrocitinib vs LN alone
[15] = multiple doses of abrocitinib 200 mg QD, Day 7 vs midazolam alone
[16] = with abrocitinib 200 mg QD on Day 2 vs midazolam alone
[17] = abrocitinib 200 mg QD with omeprazole 10 mg single dose

T1 sequence (P33261 whole entry): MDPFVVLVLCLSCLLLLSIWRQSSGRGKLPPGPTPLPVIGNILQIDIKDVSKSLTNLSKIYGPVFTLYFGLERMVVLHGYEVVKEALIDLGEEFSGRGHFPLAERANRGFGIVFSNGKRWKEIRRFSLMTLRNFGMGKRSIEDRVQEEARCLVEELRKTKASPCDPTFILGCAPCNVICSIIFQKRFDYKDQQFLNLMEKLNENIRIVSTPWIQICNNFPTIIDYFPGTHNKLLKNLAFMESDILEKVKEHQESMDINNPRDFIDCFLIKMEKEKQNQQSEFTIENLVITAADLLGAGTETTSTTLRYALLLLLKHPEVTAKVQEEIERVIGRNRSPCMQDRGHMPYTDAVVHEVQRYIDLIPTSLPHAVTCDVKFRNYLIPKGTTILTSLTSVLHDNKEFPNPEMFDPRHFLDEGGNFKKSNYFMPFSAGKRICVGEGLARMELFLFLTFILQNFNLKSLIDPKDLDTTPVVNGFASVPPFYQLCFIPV

CCCS(=O)(=O)N[C@H]1C[C@@H](N(C)c2ncnc3[nH]ccc23)C1 [Abrocitinib, N-{cis-3-[Methyl(7H-pyrrolo[2,3-d]pyrimidin-4-yl)amino]cyclobutyl}propane-1-sulfo namide]
Share of abrocitinib metabolism by CYP2C19 [1]: approximately 53% | Effect of abrocitinib on the pharmacokinetics of efavirenz [2]: lack of effect | Effect of abrocitinib on the pharmacokinetics of OCs [3, 13]: lack of effect | Effect of abrocitinib on the pharmacokinetics of midazolam [4, 13]: lack of effect | Overall safety and tolerability [5]: generally safe and well tolerated | Median Tmax of abrocitinib [6]: ≤ 1 h | Induction via the PXR pathway [7]: weak signal

Cn1c(=O)c2c(ncn2C)n(C)c1=O [Caffeine, caffeine]
Increase of caffeine AUCinf [8]: 1.4 fold

C#C[C@]1(O)CC[C@H]2[C@@H]3CCC4=CC(=O)CC[C@@H]4[C@H]3CC[C@@]21CC [Levonorgestrel, levonorgestrel]
Change of adjusted geometric mean AUClast [3, 14]: did not change | Decrease of adjusted geometric mean Cmax [3, 14]: approximately 14%

CN(c1ncnc2[nH]ccc12)[C@H]1C[C@@H](NS(=O)(=O)CCCO)C1 [M1]
TDI of CYP3A in the absence of NADPH [9]: weak TDI | TDI of CYP3A after 30-min preincubation [9]: weak TDI | TDI of CYP3A in the presence of NADPH [9]: weak TDIs | TDI of CYP2C19 in the absence of NADPH [10]: weak TDI | TDI of CYP2C19 in the presence of NADPH [10]: weak TDIs | Reversible inhibition of CYP1A2/2B6/2C19/3A [11]: no reversible inhibition

CC(O)CS(=O)(=O)N[C@H]1C[C@@H](N(C)c2ncnc3[nH]ccc23)C1 (some centres unmarked) [M2]
TDI of CYP3A in the absence of NADPH [9]: weak TDI | TDI of CYP3A after 30-min preincubation [9]: weak TDI | TDI of CYP3A in the presence of NADPH [9]: weak TDIs | TDI of CYP2C19 in the absence of NADPH [10]: weak TDI | TDI of CYP2C19 in the presence of NADPH [10]: weak TDIs | Reversible inhibition of CYP1A2/2B6/2C19/3A [11]: no reversible inhibition

Cc1ncc2n1-c1ccc(Cl)cc1C(c1ccccc1F)=NC2 [Midazolam, midazolam]
Decrease of adjusted geometric mean AUCinf of midazolam [4, 15]: approximately 7.7% | Decrease of adjusted geometric mean Cmax of midazolam [4, 15]: ~6.5% | Decrease of adjusted geometric mean AUCinf of midazolam [4, 16]: approximately 15.7% | Decrease of adjusted geometric mean Cmax of midazolam [4, 16]: ~13.7%

COc1ccc2[nH]c([S+]([O-])Cc3ncc(C)c(OC)c3C)nc2c1 (centres unmarked) [Omeprazole, omeprazole]
Increase of omeprazole AUCinf [12, 17]: approximately 2.9 fold | Increase of omeprazole Cmax [12, 17]: ~2.3 fold | Increase of omeprazole Cmax ([12]; with multiple doses of abrocitinib 200 mg QD): ~134%
